Data as given in BigSolDB 2.1.

Cc1onc(-c2c(Cl)cccc2Cl)c1C(=O)N[C@@H]1C(=O)N2[C@@H]1SC(C)(C)[C@@H]2C(=O)[O-].O.[Na+]
solubility (mole fraction)
Conditions	288.15 K	293.15 K	298.15 K	303.15 K	308.15 K	313.15 K	318.15 K
in acetone	0.000605	0.000795	0.00101	0.00128	0.00161	0.00198	0.00244
in acetonitrile	0.000144	0.000155	0.000174	0.000184	0.000209	0.000221	0.000246
in ethanol	0.00146	0.00167	0.00187	0.00211	0.00237	0.00267	0.00292
in ethyl acetate	0.000548	0.000686	0.000843	0.001	0.00123	0.00149	0.00178
in isopropanol	0.000409	0.000524	0.000618	0.000683	0.000854	0.000958	0.00118
in methanol	0.0418	0.0476	0.0536	0.06	0.0657	0.0768	0.0853
